Test results from EP4039094A1, “NOVEL ANTIFUNGAL COMPOUNDS” (Max-Planck-Gesellschaft zur Förderung der Wissenschaften …, priority 2021, dated 2022).
“Also recorded” adds a separate entry of the source.

How the values were obtained:
[1] = tested on: U. maydis strains FB1 and FB2; assay: Maize seedling infection model, compound added to inoculum, symptom scoring 12 dpi; assay type: in vivo, Ustilago maydis; design: key to Severity of disease symptoms First infection / Severity of disease symptoms Second infection: Full virulence is symbolized by (XXXXX); XXX - slightly reduced virulence; XX - reduced virulence; x - strongly reduced virulence; details: for inhibitory effect on virulence of U. maydis: 1 mM, 0.5 mM and 0.1 mM final concentration in the inoculum (Figure 2C); for virulence of U. maydis: 5 mM final concentration in the inoculum of FB1xFB2, first test of ten hits; for Retesting for an inhibition of virulence: U. maydis, retest of four compounds; for Severity of disease symptoms First infection: 4-7 plants per assay
Protocol: Compounds to be tested were added to the inoculum. Briefly, 6 day old maize seedlings were syringe-infected with about 0.5 ml of fungal suspension in H2O which was amended with the hit compound. The infection and symptoms assessment were done as described in Kämper et al., (Insights from the genome of the biotrophic fungal plant pathogen Ustilago maydis. Nature 2006, 444, 97-101). During the syringe-infection into the stem, the fungal-compound mix is dispersed between the rolled-up leaves and fills the leaf whorl. The compounds were applied only at the stage of mixing with the inoculum, which is subsequently diluted with existing apoplastic fluid, during the infection. In addition, compounds have to reach the Stp complex in biotrophic hyphae from the initial inoculum. […] Since compounds are dissolved in DMSO, the tolerance of U. maydis towards DMSO was tested by adding DMSO to the inoculum at concentrations between 10 and 50% final concentration.
Symptom scoring was done 12 days post infection (dpi) in case of U. maydis seedling infections. Symptom scoring occurred according to the categories described in Table 2. Table 2: Categories of virulence symptoms of U. maydis maize seedling infection (according to Kämper et al., 2006).

U. fabae = assay: Uromyces fabae - Vicia faba leaf infection, pustule formation versus DMSO leaflet; assay type: in vivo
Protocol: The Uromyces fabae - Vicia faba system was established by initially obtaining spores as well as broad bean seeds from the Institut für Phytomedizin at Hohenheim University, Germany. Briefly, Vicia faba plants (Bingenheimer Saatgut Frühe Weißkeimige, G142) were propagated in soil up to about the 4 leaf stage (2-3 plants per pot). Plants were transferred to a chamber lined with wet paper. 100 mg U. fabae spores were mixed with 160 mg skimmed milk powder in 200 ml sterile H2O. Tween 20 was added to a final concentration of 0.01 % and the mixture was stirred in the dark for 45 min. Leaves were sprayed with the suspension on both the upper and lower side and afterwards the entire compartment was fogged with H2O before closure and kept in the dark for 20 h. Plants were then gradually allowed to dry and were placed in a growth chamber under a light regime of 16 h light (24°C) and 8 h (20°C) dark until symptoms developed (10-12 days). Plants were tossed and spores were collected on underlying aluminum foil, and aliquots were frozen at -80°C.
For the infection with compounds added, 10 mg of U. fabae spores were mixed with 16 mg skimmed milk powder in 20 ml sterile H2O. Tween 20 was added to a final concentration of 0.01 % and the mixture was stirred in the dark for 45 min. Compounds were diluted to the desired concentration into in the spore suspension. The controls received the same amount of DMSO. Per bean plant, one pinnate leaf with two leaflets was selected and one of the leaflets was infected with spores + compound and the other with spores + DMSO, respectively. To this end leaves were lightly sprayed with H2O and the 100µl spore solution containing the compound or DMSO respectively was applied on the upper part of the using a small painting brush. Afterwards the plants were placed in a chamber lined with wet paper, fogged with H2O before closure and kept in the dark for 20 h. Plants were then gradually allowed to dry and were placed in a growth chamber under a light regime of 16 h light (24°C) and 8 h (20°C) dark until symptoms developed. The symptoms were quantified by using a previously described method (Sillero and Rubiales, 2002) with minor modifications. Comparisons of pustule formation were done as follow: leaf treated with spores plus DMSO (control) versus leaf treated with spores plus compound in DMSO (test). A single bifurcated leaf was used for this assay, and one half received the control and the other half receive spores with compound. Then it was determined whether pustule formation occurs or is inhibited. Leaves were scored for the development of brownish-red pustules. Only when brownish-red pustules containing powdery spores (urediniospores) appeared on the control leaf an infection was counted as valid. All compounds were tested in three biological replicates. Pictures were taken at 12-14 days post infection.

[2] = 1 mM final concentration in the inoculum of Zea Mays (Figure 2A, B)
[3] = 0.5 mM final concentration in the inoculum
[4] = 1 mM final concentration in the inoculum of Vicia faba
[5] = 5 mM hit compound added to inoculum of FB1xFB2, Zea mays

SMILES	Virulence inhibition of U. maydis [1, 2]	inhibitory effect on virulence of U. maydis [1]	virulence of U. maydis [1]	Retesting for an inhibition of virulence [1]	virulence inhibition of U. fabae (pustule formation) (U. fabae; [3])	virulence inhibition of U. fabae (pustule formation) (U. fabae; [4])	Virulence inhibition of U. maydis ([1]; 0.5 mM final concentration, dilution series (Figure 7))	Virulence inhibition of U. maydis ([1]; 1 mM final concentration, dilution series (Figure 7))	Virulence inhibition of U. maydis ([1]; 5 mM final concentration, dilution series (Figure 7))	Severity of disease symptoms First infection [1, 5]	Severity of disease symptoms Second infection ([1]; 5 mM hit compound added to inoculum of FB1xFB2, Zea mays, retest)	Virulence inhibition of U. maydis ([1]; dilution series between 5 mM and 0.01 mM final concentration (Figure 5))	virulence inhibition of U. fabae (pustule formation) (U. fabae; 0.1 mM final concentration)	inhibitory activity on U. fabae virulence (U. fabae; Figure 6, concentration not given)
Cc1ccc(-c2c(-c3ccc(C)cc3)[n+]([O-])c3ccccn23)cc1 [Compound 1-A]	able to reduce virulence	concentration dependent inhibitory effect	significant reductions in virulence	confirmed the results	developed symptoms	able to inhibit pustule formation	–	–	–	–	–	–	–	–
CC(C)n1ncc2cc(NS(=O)(=O)c3cc(F)ccc3F)cnc21 [Compound 1-B]	–	–	significant reductions in virulence	confirmed the results	–	completely inhibited	negligible	very strong; also recorded: very strongly	very strong; also recorded: very strongly	XX	–	–	–	–
Cc1ccc(CSc2nc(=O)n(C3CCCC3)c3c2CCC3)cc1 [Compound 1-C]	–	–	significant reductions in virulence	confirmed the results	inhibited pustule formation	inhibited pustule formation	–	–	–	XXX	XXX	concentration dependent; also recorded: strong inhibitory activity	inhibited pustule formation	strong inhibitory activity
[O-][n+]1c(-c2ccc(C(F)(F)F)cc2)c(-c2ccc(C(F)(F)F)cc2)n2ccccc21 [Compound 2-A]	able to reduce virulence	concentration dependent inhibitory effect	–	–	fully inhibit pustule formation	able to inhibit pustule formation	–	–	–	–	–	–	–	–
O=[N+]([O-])c1ccc(-c2c(-c3ccccc3)n3ccccc3[n+]2[O-])cc1 [Compound 3-A]	only mildly	–	–	–	developed symptoms	able to inhibit pustule formation	–	–	–	–	–	–	–	–
